Reference: patent publication US11643417B2, “Tetrahydrobenzofurodiazepinone compound and pharmaceutical use thereof” (priority 2020, dated 2023)

The compounds below were run against human Pim-1 (Homo sapiens (Human), UniProt P11309) (assay: biochemical). Conditions: Ki converted from IC50; purified human Pim-1, Pim2tide substrate, ADP-Glo; read-out: hPim1 Ki.
Assay type: biochemical
Procedure: The human Pim-1 inhibitory activity of the test compounds was evaluated as follows.
(1) Purification of Human Pim-1
DNA fragment in which a His-Tag sequence and a translation termination sequence are added to the 3′-end of human Pim-1 translation sequence was amplified by PCR (Polymerase Chain Reaction), using human Pim-1 gene-inserted plasmid DNA (Kazusa DNA Laboratory, model number FXC11400) as a template. The amplified DNA fragment was fused with pGEx-6P-1 (GE Healthcare Japan, model number 27-4597-1) digested with BamHI and EcoRI using In-Fusion HD Cloning Kit (Takara Bio, model number 639649). […] The base sequence of Pim-1 cloned into vector was determined by Dye Terminator method using BigDye Terminator v3.1 Cycle Sequencing Kit (Applied Biosystems, model number 4337456). […] Escherichia coli BL21 (DE3) (Merck KGaA, model number 69449-4) transformed with human Pim-1-expressed plasmid DNA was cultured in 2×YT medium (Becton Dickinson, model number 2404020) at 30° C., until the optical concentration at 620 nm (OD620) reached 0.6, and then cultured overnight at 20° C. in the presence of 0.5 mmol/L isopropyl b-D-1-thiogalactopyranoside. After the completion of so the culture, the cells were collected and suspended in Homogenate Buffer (50 mmol/L Tris-HCl (pH 7.5), 500 mmol/L NaCl, 1% Tween20, complete, EDTA-free (Roche, model number 1873580)), and the suspended cells were lysed by passing through a microfluidizer M-110H (Mizuho Kogyo Co., Ltd.). The lysate was centrifuged at 10,100×g for 10 minutes, 4° C., and the supernatant was filtered through MILLEX-HV Filter (0.45 μm) (Millipore, SLHV033RS) to remove the cell residues. The filtrate was loaded onto complete His-Tag Purification Resin (Roche Diagnostics, model number 05 893 682 0.01). The column was washed with Equilibration Buffer-1 (50 mmol/L Tris-HCl (pH 7.5), 500 mmol/L NaCl, 1% Tween 20) containing 5 mmol/L Imidazole, followed by Equilibration Buffer-1 containing 50 mmol/L Imidazole, the human Pim-1 to which GST-Tag derived from pGEx-6P-1 was eluted with Equilibration Buffer-1 containing 150 mmol/L imidazole. […] The protease reaction was carried out by stirring overnight at 4° C., and the human Pim-1 in which the GST-Tag sequence was cleaved was eluted. The eluate was loaded onto a gel filtration column (Superdex-200 […] (GE Healthcare, model number 17-5175-01)) equilibrated with Equilibration Buffer-3 (50 mmol/L Tris-HCl (pH 7.5), 500 mmol/L NaCl, 0.05% Tween20, 0.5 mmol/L EDTA, 2 mmol/L DTT, 10% Glycerol), and eluted. The eluate was used as a human Pim-1 purified fraction.
The protein concentration of the human Pim-1 purified fraction was measured with Pierce 660 nm Protein Assay Reagent (Thermo Fisher Scientific, model number 22660). The purified fraction was rapidly frozen in liquid nitrogen, and then stored at −80° C. The His-Tag-added human Pim-1 was detected by Western blotting using a mouse anti-His monoclonal antibody (WAKO, model number 011-23091).
(2) Evaluation of Human Pim-1 Inhibitory Activity
The calculation of the Pim-1 inhibitory activity of the compound was performed using the following solution according to the protocol attached to ADP-Glo Kinase Assay (cat. V9102, Promega). The purified enzyme of human Pim-1 described above was used.
(i) Preparation of Solution
The kinase buffer solution (50 mmol/L HEPES (pH 7.5), 5 mmol/L MgCl2, 1 mmol/L DTT, 0.05% BSA) was prepared by dissolving HEPES (Jena Bioscience), MgCl2 (Sigma-Aldrich), DTT (Sigma-Aldrich) and BSA (Sigma-Aldrich) in purified water.
The ATP solution (288 μmol/L) was prepared by dissolving 100 mmol/L ATP (Promega) in the kinase buffer solution.

human Pim-1, sequence (P11309 whole entry): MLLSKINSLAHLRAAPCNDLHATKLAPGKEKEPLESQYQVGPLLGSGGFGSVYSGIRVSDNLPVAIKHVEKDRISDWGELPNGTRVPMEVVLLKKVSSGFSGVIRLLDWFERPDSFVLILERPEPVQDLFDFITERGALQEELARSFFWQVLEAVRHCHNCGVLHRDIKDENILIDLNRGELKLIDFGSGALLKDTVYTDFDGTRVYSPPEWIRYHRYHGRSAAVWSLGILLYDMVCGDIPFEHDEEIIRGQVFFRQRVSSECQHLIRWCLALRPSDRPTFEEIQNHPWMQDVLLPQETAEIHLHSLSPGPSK

| SMILES | Ki |
| --- | --- |
| O=C1NCCN(CC(F)(F)C2CC(O)(C(F)F)CCO2)c2c1oc1ccc(C(F)(F)F)cc21 (single isomer, unassigned) [Example 52] | 0.104 nM |
| O=C1NCCN(CC(F)(F)C2CC(O)(C(F)F)CCO2)c2c1oc1ccc(C(F)(F)F)cc21 (single isomer, unassigned) [Example 53] | 0.0921 nM |
| O=C1NCCN(CC(F)(F)C2COCCO2)c2c1oc1ccc(C(F)(F)F)cc21 (single isomer, unassigned) [Example 68] | 0.0461 nM |
| O=C1NCCN(CC(F)(F)C2COCCO2)c2c1oc1ccc(C(F)(F)F)cc21 (single isomer, unassigned) [Example 70] | 0.0734 nM |
| O=C1NCCN(CCC2CCC(O)(C(F)(F)CO)CC2)c2c1oc1ccc(C(F)(F)F)cc21 (single isomer, unassigned) [Example 118] | 0.127 nM |
| O=C1NCCN(CCC2CCC(O)(C(F)(F)CO)CC2)c2c1oc1ccc(C(F)(F)F)cc21 (single isomer, unassigned) [Example 119] | 0.144 nM |
| CC1(O)CCC(CCN2CC3(CC3)NC(=O)c3oc4ccc(C(F)(F)F)cc4c32)CC1 (single isomer, unassigned) [Example 127] | 0.0532 nM |
| CC1(O)CCC(CCN2CC3(CC3)NC(=O)c3oc4ccc(C(F)(F)F)cc4c32)CC1 (single isomer, unassigned) [Example 128] | 0.031 nM |
| CC1(O)CCC(C(F)(F)CN2CCNC(=O)c3oc4ccc(C(F)(F)F)cc4c32)CC1 (single isomer, unassigned) [Example 147] | 0.213 nM |
| CC1(O)CCC(C(F)(F)CN2CCNC(=O)c3oc4ccc(C(F)(F)F)cc4c32)CC1 (single isomer, unassigned) [Example 148] | 0.114 nM |
| O=C1NCCN(CCC2CC(O)CCO2)c2c1oc1ccc(C(F)(F)F)cc21 (stereo not drawn) [Example 1] | 0.697 nM |
| CC1(C)OC[C@]2(CC[C@H](CCN3CCNC(=O)c4oc5ccc(C(F)(F)F)cc5c43)CC2)O1 [Example 2-01] | 1.6 nM |
| O=C1OC[C@]2(CC[C@H](CCN3CCNC(=O)c4oc5ccc(C(F)(F)F)cc5c43)CC2)O1 [Example 2-02] | 0.43 nM |
| CN1CCN(CC[C@H]2CC[C@](O)(CO)CC2)c2c(oc3ccc(C(F)(F)F)cc23)C1=O [Example 2-03] | 0.414 nM |
| COC[C@]1(OC)CC[C@@H](CCN2CCNC(=O)c3oc4ccc(C(F)(F)F)cc4c32)CC1 [Example 2-04] | 1.25 nM |
| COC[C@]1(OC)CC[C@@H](CCN2CCN(C)C(=O)c3oc4ccc(C(F)(F)F)cc4c32)CC1 [Example 2-05] | 13.2 nM |
| C[C@H]1CN(CC[C@H]2CC[C@](O)(CO)CC2)c2c(oc3ccc(C(F)(F)F)cc23)C(=O)N1 [Example 2-06] | 0.074 nM |
| C[C@@H]1CN(CC[C@H]2CC[C@](O)(CO)CC2)c2c(oc3ccc(C(F)(F)F)cc23)C(=O)N1 [Example 2-07] | 0.136 nM |
| N#CC1CCOC(CCN2CCNC(=O)c3oc4ccc(C(F)(F)F)cc4c32)C1 (stereo not drawn) [Example 2] | 1.12 nM |
| CC1COC(CCN2CCNC(=O)c3oc4ccc(C(F)(F)F)cc4c32)CC1O (stereo not drawn) [Example 3] | 0.606 nM |
| O=C1NCCN(CCC2CC(O)(CO)CCO2)c2c1oc1ccc(C(F)(F)F)cc21 (stereo not drawn) [Example 4] | 0.442 nM |
| O=C1NCCN(CCC2CCC(CO)CCO2)c2c1oc1ccc(C(F)(F)F)cc21 (stereo not drawn) [Example 9] | 0.481 nM |
| O=C1NCCN(CC(F)(F)C2CC(O)(CO)CCO2)c2c1oc1ccc(C(F)(F)F)cc21 (stereo not drawn) [Example 13] | 0.021 nM |
| O=C1NCCN(CC2(F)COC2)c2c1oc1ccc(C(F)(F)F)cc21 [Example 16] | 10.9 nM |

Same assay, conditions: hPim1 Ki (nM), Ki converted from IC50; purified human Pim-1, Pim2tide substrate, ADP-Glo

| SMILES | Ki |
| --- | --- |
| [2H]C1(O)CCC(CCN2CCNC(=O)c3oc4ccc(C(F)(F)F)cc4c32)CC1 (relative stereo) [Example 91] | 0.198 nM |
| O=C1NCCN(CC(F)(F)C2CC(CO)CCO2)c2c1oc1ccc(C(F)(F)F)cc21 (single isomer, unassigned) [Example 14] | 0.0334 nM |
| O=C1NCCN(CC(F)(F)C2CC(CO)CCO2)c2c1oc1ccc(C(F)(F)F)cc21 (single isomer, unassigned) [Example 15] | 0.0289 nM |
